We go through 14 molecules from patent US11530210B2, “Substituted heteroaromatic pyrazolo-pyridines and their use as GLUN2B receptor modulators” (JANSSEN PHARMACEUTICA NV, priority 2019, dated 2022).

A word on the IC50: it is the concentration needed to halve the response being measured.

Data set [1] addresses T1, human GluN1/GluN2B NMDA receptors (Homo sapiens, UniProt Q13224).
T1 construct: expressed in transfected cells
Kind of data set: Calcium flux (FLIPR) assay on cloned human NR1/GluN2B ion channels expressed in mammalian cells (standard and HTS variants). The format is cell-based. To be noted: cells expressing human GluN1/GluN2B, glutamate and glycine co-agonists. The method, boiled down:
(§1)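 Tet-On-induced stable cell line loaded with Calcium 5 dye; compounds applied 5 min (agonist check), then glutamate at ~EC40 plus 10 μM glycine for 5 min. Buffer pH 7.4 with 0.5 mM MgCl2 in dye loading (standard) or 1.5 mM (HTS). FLIPR fluorescence normalized to control wells; (+)MK-801 as antagonist control.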
(In general: Calcium flux is commonly read through the fluorescence of an indicator in the cells.)

Data set [2] in a line: Liver microsomal stability (extraction ratio). Type of data set: in vitro ADME, mouse, rat, and human. To be noted: test compound 1 μM, 0.5 mg/mL liver microsomes, NADPH 1 mM, 37° C.; ER = predicted hepatic clearance / species blood flow; species not given. As for the experimental part:
Protocol for Liver Microsomal Stability (Extraction Ratio)
Liver Microsomal Stability. Microsomal stability studies (Chrovian et al, “1H-Pyrrolo[3,2-b]pyridine GluN2B-Selective Negative Allosteric Modulators”. ACS Med Chem Lett. 2019 Jan. 10; 10(3):261-266) were conducted on a Biomek® FX Robotic Liquid Handling Workstation (Beckman Coulter, Brea, Calif.), which consists of a 96-channel pipette head, a 12-postion workstation deck, and a plate incubator. Test compounds (1 μm) were spiked in a reaction mix consisting of 100 mM potassium phosphate buffer (pH 7.4), 3 mM MgCl2, and 0.5 mg/mL liver microsomes from mouse, rat, and human (BD Gentest). The reaction was brought to 37° C. and initiated by adding NADPH to a final concentration of 1 mM. After mixing on the platedeck, 50 µL aliquots were excised from the reaction plate at 0, 5, 10, 20, 40, and 60 min and quenched with four volumes of acetonitrile spiked with […] of the internal standard phenytoin. Quenched plates were centrifuged at 5700 rpm for 10 min at 4° C., and supernatant was diluted 1:3 in water before LC/MS/MS analysis. The compound half-lives were derived from plots of the ln of percent remaining compound over time to determine the intrinsic clearance. The predicted hepatic clearance was derived from the intrinsic clearance value using equations from the well-stirred model (Current Drug Metabolism, 2008, 9, 940-951), where no correction was made plasma protein binding and the blood to plasma concentration ratio was assumed to be one.

For data set [3], the target named is T2, human GluN1/GluN2B NMDA receptors (Homo sapiens, UniProt Q05586+Q13224).
T2 construct: expressed in transfected cells
T2 sequence (Q13224 27-1484, other chains not shown): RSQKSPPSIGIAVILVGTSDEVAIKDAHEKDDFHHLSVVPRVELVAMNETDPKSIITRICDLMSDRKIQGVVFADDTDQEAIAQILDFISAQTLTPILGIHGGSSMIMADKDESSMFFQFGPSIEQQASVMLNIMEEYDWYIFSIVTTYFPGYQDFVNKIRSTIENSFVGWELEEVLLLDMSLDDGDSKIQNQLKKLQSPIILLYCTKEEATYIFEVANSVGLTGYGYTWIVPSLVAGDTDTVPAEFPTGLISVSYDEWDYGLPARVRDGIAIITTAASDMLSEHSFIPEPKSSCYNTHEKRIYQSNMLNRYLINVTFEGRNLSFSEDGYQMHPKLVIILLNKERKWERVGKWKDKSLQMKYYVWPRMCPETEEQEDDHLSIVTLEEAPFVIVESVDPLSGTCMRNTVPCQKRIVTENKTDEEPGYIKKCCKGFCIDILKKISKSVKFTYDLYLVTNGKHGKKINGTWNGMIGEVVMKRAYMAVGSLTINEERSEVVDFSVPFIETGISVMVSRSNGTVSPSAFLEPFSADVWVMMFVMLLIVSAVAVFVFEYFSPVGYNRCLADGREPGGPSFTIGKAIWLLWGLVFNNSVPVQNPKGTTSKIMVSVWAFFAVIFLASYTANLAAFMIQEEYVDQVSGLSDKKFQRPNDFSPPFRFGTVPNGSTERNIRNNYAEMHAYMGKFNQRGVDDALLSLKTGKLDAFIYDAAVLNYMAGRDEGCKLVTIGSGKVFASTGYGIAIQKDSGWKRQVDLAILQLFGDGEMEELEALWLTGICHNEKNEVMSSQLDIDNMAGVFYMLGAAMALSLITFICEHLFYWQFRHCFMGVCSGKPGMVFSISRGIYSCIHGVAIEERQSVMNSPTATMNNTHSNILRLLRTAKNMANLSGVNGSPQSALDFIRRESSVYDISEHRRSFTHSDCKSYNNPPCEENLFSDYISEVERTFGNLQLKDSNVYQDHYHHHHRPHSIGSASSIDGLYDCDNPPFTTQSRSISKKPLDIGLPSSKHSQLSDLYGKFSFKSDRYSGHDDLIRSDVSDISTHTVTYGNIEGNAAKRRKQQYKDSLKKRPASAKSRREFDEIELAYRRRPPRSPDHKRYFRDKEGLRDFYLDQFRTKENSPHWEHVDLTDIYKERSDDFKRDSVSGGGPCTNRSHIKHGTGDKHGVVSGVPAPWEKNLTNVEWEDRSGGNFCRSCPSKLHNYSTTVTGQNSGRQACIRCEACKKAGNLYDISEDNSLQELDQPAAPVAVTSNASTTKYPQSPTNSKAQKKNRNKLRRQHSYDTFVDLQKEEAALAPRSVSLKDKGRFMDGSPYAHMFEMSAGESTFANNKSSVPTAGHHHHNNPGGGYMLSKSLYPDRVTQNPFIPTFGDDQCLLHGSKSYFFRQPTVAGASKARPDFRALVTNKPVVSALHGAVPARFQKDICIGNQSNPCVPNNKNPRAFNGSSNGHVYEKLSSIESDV
The data set is described as follows: Calcium flux (FLIPR) assay on cloned human NR1/GluN2B ion channels expressed in mammalian cells (standard and HTS variants). The format is cell-based. To be noted: cells expressing human GluN1/GluN2B, glutamate and glycine co-agonists. The method, boiled down:
as §1

T1 sequence (Q13224 27-1484, other chains not shown): as above

For `Cc1nnc(Cn2ncc3ncc(-c4ccc(F)c(C(F)F)c4)cc32)s1` [Example 122, 2-[[6-[3-(Difluoromethyl)-4-fluoro-phenyl]pyrazolo[4,3-b]pyridin-1-yl]methyl]-5-methyl-1,3,4-thiadiazole], the IC50 in data set [1] stood at 18 nM. In addition, in data set [2], the “Extraction Ratio @ 1 μM” value is listed as 0.60.

For the molecule `Fc1ccc(-c2cnc3cnn(Cc4cccnn4)c3c2)cc1C(F)F` [Example 261, 6-[3-(Difluoromethyl)-4-fluoro-phenyl]-1-(pyridazin-3-ylmethyl)pyrazolo[4,3-b]pyridine], the 50% inhibitory concentration (IC50) in data set [1] is 23 nM. Moreover, the “Extraction Ratio @ 1 μM” value in data set [2] is reported as less than 0.298. Taken in the same sequence, the figures for `Fc1cncc(Cn2ncc3ncc(-c4ccc(F)c(C(F)F)c4)cc32)c1` [Example 202, 6-[3-(Difluoromethyl)-4-fluoro-phenyl]-1-[(5-fluoro-3-pyridyl)methyl]pyrazolo[4,3-b]pyridine] were 14 nM and 0.57. For `Cc1nnc(Cn2ncc3ncc(-c4ccc(F)c(C(F)F)c4)cc32)o1` [Example 10, 2-[[6-[3-(Difluoromethyl)-4-fluoro-phenyl]pyrazolo[4,3-b]pyridin-1-yl]methyl]-5-methyl-1,3,4-oxadiazole] the same measures were 19 nM and 0.31. Turning to `CC(F)(F)c1cccc(-c2cnc3cnn(Cc4cccnc4)c3c2)c1` [Example 12, 6-[3-(1,1-Difluoroethyl)phenyl]-1-(3-pyridylmethyl)pyrazolo[4,3-b]pyridine], in data set [3], the IC50 was 26 nM. Consider `Fc1ccc(-c2cnc3cnn(Cc4cncnc4)c3c2)cc1C(F)F` [Example 275, 6-[3-(Difluoromethyl)-4-fluoro-phenyl]-1-(pyrimidin-5-ylmethyl)pyrazolo[4,3-b]pyridine], for which, in data set [1], the IC50 came out at 12 nM. In addition, the “Extraction Ratio @ 1 μM” value in data set [2] is recorded as 0.36. Regarding `[2H]c1nn(Cc2nnc(C)o2)c2cc(-c3ccc(F)c(C(F)F)c3)cnc12` [compound 297, 2-[[3-Deuterio-6-[3-(difluoromethyl)-4-fluoro-phenyl]pyrazolo [4,3-b]pyridin-1-yl]methyl]-5-methyl-1,3,4-oxadiazole], the concentration for half-maximal inhibition (IC50) in data set [3] was determined as 24 nM. As for `Cc1cnc(Cn2ncc3ncc(-c4ccc(F)c(C(F)F)c4)cc32)o1` [Example 8, 2-[[6-[3-(Difluoromethyl)-4-fluoro-phenyl]pyrazolo[4,3-b]pyridin-1-yl]methyl]-5-methyl-oxazole], the IC50 in data set [1] was 28 nM. In data set [2], the “Extraction Ratio @ 1 μM” value is reported as 0.68.

For the molecule `CC(F)(F)c1cc(-c2cnc3cnn(Cc4cn[nH]c4)c3c2)ccc1F` [Example 40, 6-[3-(1,1-Difluoroethyl)-4-fluoro-phenyl]-1-(1H-pyrazol-4-ylmethyl)pyrazolo[4,3-b]pyridine], in data set [3], the IC50 came to 825 nM. In the case of `Cc1nc(Cn2ncc3ncc(-c4ccc(F)c(C(F)F)c4)cc32)no1` [Example 97, 3-[[6-[3-(Difluoromethyl)-4-fluoro-phenyl]pyrazolo[4,3-b]pyridin-1-yl]methyl]-5-methyl-1,2,4-oxadiazole], the IC50 in data set [1] came to 41 nM. Further, the “Extraction Ratio @ 1 μM” value in data set [2] is 0.42. For `Cc1cc(Cn2ncc3ncc(-c4ccc(F)c(C(F)F)c4)cc32)on1` [Example 52, 5-[[6-[3-(Difluoromethyl)-4-fluoro-phenyl]pyrazolo[4,3-b]pyridin-1-yl]methyl]-3-methyl-isoxazole] the same measures were 22 nM and 0.69. Taken in the same sequence, the figures for `Cc1nnc(Cn2nc(F)c3ncc(-c4ccc(F)c(C(F)F)c4)cc32)o1` [Example 96, 2-[[6-[3-(Difluoromethyl)-4-fluoro-phenyl]-3-fluoro-pyrazolo[4,3-b]pyridin-1-yl]methyl]-5-methyl-1,3,4-oxadiazole] were 38 nM and less than 0.298. Take `COc1nnc(Cn2ncc3ncc(-c4ccc(F)c(OC(F)F)c4)cc32)s1` [Example 134, 2-[[6-[3-(difluoromethoxy)-4-fluoro-phenyl]pyrazolo[4,3-b]pyridin-1-yl]methyl]-5-methoxy-1,3,4-thiadiazole]: in data set [3], the IC50 was 1320 nM.

In the case of `Fc1ccc(-c2cnc3cnn(Cc4cccnc4)c3c2)cc1C(F)F` [Example 198, 6-[3-(Difluoromethyl)-4-fluoro-phenyl]-1-(3-pyridylmethyl)pyrazolo[4,3-b]pyridine], in data set [1], the IC50 is 8 nM. For the same molecule, in data set [2], the “Extraction Ratio @ 1 μM” value is 0.65.
